Consider two compounds from patent US20150044346A1, “USE OF OXAZOLINES AS AROMA/FLAVOUR PRECURSORS” (NESTEC S.A., priority 2012, published 2015).

A short description of this data set: Release of Strecker aldehyde from 3-oxazoline precursor stirred in water at 37° C. (stable isotope dilution, HS-GC-MS / GC-MS). Format: physicochemical. The note with it: for isomer I (formed) (mol %) / isomer II (unreacted) (mol %): starting from isomer II; for isomer I (unreacted) (mol %) / isomer II (formed) (mol %): starting from isomer I.
Setting [1] is: 5 min, stirred in water at 37° C.
[2] abbreviates: 15 min, stirred in water at 37° C.
Where [3] appears, read: 30 min, stirred in water at 37° C.
[4] abbreviates: Control without addition of water.

Where “and” joins values, the source holds several entries; their conditions need not be identical. Equal entries are not always repeated.

Turning to `Cc1ccccc1C1N=CC(C)O1` (single isomer, unassigned; isomer ii) [2-methylphenyl-5-methyl-3-oxazoline isomer II, 2-methylphenyl-5-methyl-3-oxazoline], the “phenylacetaldehyde (mol %) generated from precursor” value is recorded as 17.2 mol % under setting [1]; 17.2 mol % (5 min, stirred in water at 37° C., listed as 2-methylphenyl-5-methyl-2-oxazoline isomer II); 32.2 mol % under setting [2]; 32.2 mol % (15 min, stirred in water at 37° C., listed as 2-methylphenyl-5-methyl-2-oxazoline isomer II); 46.5 mol % under setting [3]; 46.5 mol % (30 min, stirred in water at 37° C., listed as 2-methylphenyl-5-methyl-2-oxazoline isomer II). The “phenylacetaldehyde (mol %) generated from precursor” value is recorded as 0.3 mol % (Control experiment without addition of water) and 0.3 mol % (Control experiment without addition of water, listed as 2-methylphenyl-5-methyl-2-oxazoline isomer II). The “isomer I (formed) (mol %)” value is listed as 9.0 mol % (5 min, water 37° C.); 5.4 mol % (15 min, water 37° C.); 2.7 mol % (30 min, water 37° C.); 1.8 mol % under setting [4]. The “isomer II (unreacted) (mol %)” value reads like this: (5 min, water 37° C.) 28.6 mol %; (15 min, water 37° C.) 26.0 mol %; (30 min, water 37° C.) 20.2 mol %; under setting [4], 98.2 mol %.
For the compound `CC(C)CC1N=CC(C)O1` (single isomer, unassigned) [2-(2-methylpropyl)-5-methyl-3-oxazoline isomer I, 2-(2-methylpropyl)-5-methyl-3-oxazoline], the “3-methylbutanal (mol %) generated from precursor” value was found to be 72.7 mol % under setting [1]; 82.4 mol % under setting [2]; 91.1 mol % under setting [3]; 0.3 mol % (Control experiment without addition of water, in relation to amount of precursor used). Moreover, the “isomer I (unreacted) (mol %)” value by setting is: (5 min, water 37° C.) 16.2 mol %; (15 min, water 37° C.) 8.4 mol %; (30 min, water 37° C.) 2.9 mol %; under setting [4], 98.1 mol %. Besides, the “isomer II (formed) (mol %)” value stood at 5.1 mol % (5 min, water 37° C.); 10.2 mol % (15 min, water 37° C.); 4.3 mol % (30 min, water 37° C.); 1.9 mol % under setting [4]. The “3-methylbutanal released / precursor converted to Strecker aldehyde” value (5 min after addition of water at 37° C.) worked out at 73%. Besides, where the note is “after 5 min, water 37° C.”, the “corresponding isomer II formed from purified isomer I” value is reported as 5%. For the same compound, the 3-methylbutanal released is > 80% (after 15 min, water 37° C.); > 90% and 91% (after 30 min, water 37° C.).
